Measured values from PMC12058161, “The plant matrix of Artemisia annua L. for the treatment of malaria: Pharmacodynamic and pharmacokinetic studies” (PLOS One, 2025).
“And” between values parts separate entries of the source, which are not always exact repeats. Equal values may be shown once.

Experiments:
[1] = in vivo; conditions: male, Sprague Dawley, rat, po, 352 mg/kg
Method: (§1) Blood samples were centrifuged at 3500 rpm for 5 min at 4°C. All plasma samples were then stored at -80°C until analysis.
(§2) All samples were stored in a refrigerator at -80°C and thawed at room temperature before processing. A 50 μL aliquot of plasma was added with 5 μL of the standard solution (or acetonitrile) and 100 μL of internal standard solution in turn, vortexed and mixed, then sonicated for 3 min, centrifuged at 14000 rpm for 10 min at low temperature. The supernatant was transferred to an autosampler vial and analyzed by UHPLC-ESI-MS/MS.
(§3) The mobile phase consisted of 0.1% formic acid solution (A) and acetonitrile (B).
(§4) The ESI ionization source was used and detected in MRM mode.
(§5) All data were presented as mean ± SD. Pharmacokinetic parameters including half-life (t1/2), maximum plasma time (Tmax) and concentration (Cmax), area under concentration-time curve (AUC0-t and AUC0-∞), clearance (CL), steady-state volume of distribution (Vz), and mean residence time (MRT) were analyzed by non-compartmental method using DAS Version 2.0 (Chinese Pharmacological Society, Beijing, China). […] The data were analyzed by Student’s t-test for two groups and one-way analysis of variance for multiple groups; p < 0.05 was considered statistically significant.

[2] = male, Sprague Dawley, rat, in vivo, po, 352 mg/kg
Method: as §1, §2, §3, §4, §5

[3] = Stability of the five compounds in SD rat plasma (QC samples, UHPLC-ESI-MS/MS); format: in vitro ADME; conditions: for stability, Accuracy (measured versus nominal concentration) / stability, mean ± SD (measured concentration): SD rat plasma, n=5
Method: The method was validated according to the US Food and Drug Administration (FDA) Bioanalytical Method Validation Guidance as follows: [1] specificity was assessed by analyzing blank plasma, blank plasma spiked with standard solutions and rat plasma samples after oral administration. Each calibration curve was plotted using the concentration of the standard solution as the horizontal coordinate and the ratio of analyte to internal standard peak area as the vertical coordinate. The lower limit of quantification (LLOQ) refers to the lowest concentration, which is typically 10 times the signal-to-noise ratio. It has an acceptable accuracy of ± 20% and a precision of less than 20% [3]. Quality Control (QC) samples (low, medium and high concentrations) were prepared for each analyte. Five samples were analyzed at each concentration level and three consecutive batches were determined to calculate the accuracy and precision of the method. Extraction recovery was assessed by the ratio of the average peak area of routinely prepared QC samples (low, medium, and high concentrations) to the post-extraction plasma sample. Likewise, matrix effect was assessed by the ratio of peak areas between post-extraction samples spiked with analytes and mobile phases spiked with the same concentration of analytes.

[4] = nominal 20 ng/mL, 3 freeze-thaw cycles
[5] = nominal 20 ng/mL, 7 days at -80°C
[6] = nominal 20 ng/mL, Room temperature 24h
[7] = nominal 1000 ng/mL, 3 freeze-thaw cycles
[8] = nominal 1000 ng/mL, 7 days at -80°C
[9] = nominal 1000 ng/mL, Room temperature 24h
[10] = nominal 5000 ng/mL, 3 freeze-thaw cycles
[11] = nominal 5000 ng/mL, 7 days at -80°C
[12] = nominal 5000 ng/mL, Room temperature 24h

AUC(0-inf) [1]: 1390 ± 586 ng·h/mL
AUC(0-t) [1]: 990 ± 284 ng·h/mL
Cmax ([1]; Cmax): 222 ± 46.4 ng/mL
MRT last ([1]; MRT(0-t)): 4.34 ± 0.957 h
half-life ([1]; t1/2): 5.14 ± 1.8 h
CL [2]: 0.016 ± 0.006 L/h
Vz [2]: 0.114 ± 0.041 L
Stability in plasma, measured concentration (mean ± SD) ([3]; 3 freeze-thaw cycles, QC concentration 20 ng/mL): 21.0 ± 1.74 ng/mL and 21.0437 ng/mL
Stability in plasma, measured concentration (mean ± SD) ([3]; 3 freeze-thaw cycles, QC concentration 1000 ng/mL): 942 ± 21.5 ng/mL and 941.9 ng/mL
Stability in plasma, measured concentration (mean ± SD) ([3]; 3 freeze-thaw cycles, QC concentration 5000 ng/mL): 4532 ± 63.0 ng/mL and 4531.84 ng/mL
Stability in plasma, measured concentration (mean ± SD) ([3]; 7 days at -80°C, QC concentration 20 ng/mL): 20.6 ± 1.03 ng/mL and 20.6026 ng/mL
Stability in plasma, measured concentration (mean ± SD) ([3]; 7 days at -80°C, QC concentration 1000 ng/mL): 920 ± 31.6 ng/mL and 920.324 ng/mL
Stability in plasma, measured concentration (mean ± SD) ([3]; 7 days at -80°C, QC concentration 5000 ng/mL): 4563 ± 143 ng/mL and 4562.63 ng/mL
Stability, measured concentration, mean ± SD ([3]; QC sample 20 ng/mL, 3 freeze-thaw cycles): 21.0 ± 1.74 ng/mL
Stability, measured concentration, mean ± SD ([3]; QC sample 20 ng/mL, 7 days at -80°C): 20.6 ± 1.03 ng/mL
Stability, measured concentration, mean ± SD ([3]; QC sample 20 ng/mL, Room temperature 24h): 21.1 ± 0.78 ng/mL
Stability, measured concentration, mean ± SD ([3]; QC sample 1000 ng/mL, 3 freeze-thaw cycles): 942 ± 21.5 ng/mL
Stability, measured concentration, mean ± SD ([3]; QC sample 1000 ng/mL, 7 days at -80°C): 920 ± 31.6 ng/mL
Stability, measured concentration, mean ± SD ([3]; QC sample 1000 ng/mL, Room temperature 24h): 1003 ± 39.5 ng/mL
Stability, measured concentration, mean ± SD ([3]; QC sample 5000 ng/mL, 3 freeze-thaw cycles): 4532 ± 63.0 ng/mL
Stability, measured concentration, mean ± SD ([3]; QC sample 5000 ng/mL, 7 days at -80°C): 4563 ± 143 ng/mL
Stability, measured concentration, mean ± SD ([3]; QC sample 5000 ng/mL, Room temperature 24h): 4765 ± 218 ng/mL
Stability in plasma, measured concentration (mean ± SD) ([3]; Room temperature 24h, QC concentration 20 ng/mL): 21.1 ± 0.78 ng/mL and 21.1244 ng/mL
Stability in plasma, measured concentration (mean ± SD) ([3]; Room temperature 24h, QC concentration 1000 ng/mL): 1002.91 ng/mL and 1003 ± 39.5 ng/mL
Stability in plasma, measured concentration (mean ± SD) ([3]; Room temperature 24h, QC concentration 5000 ng/mL): 4764.7 ng/mL and 4765 ± 218 ng/mL
stability, Accuracy (measured versus nominal concentration) [3, 4]: 105.22%
stability, mean ± SD (measured concentration) [3, 4]: 21.0 ± 1.74 ng/mL
stability, Accuracy (measured versus nominal concentration) [3, 5]: 103.01%
stability, mean ± SD (measured concentration) [3, 5]: 20.6 ± 1.03 ng/mL
stability, Accuracy (measured versus nominal concentration) [3, 6]: 105.62%
stability, mean ± SD (measured concentration) [3, 6]: 21.1 ± 0.78 ng/mL
stability, Accuracy (measured versus nominal concentration) [3, 7]: 94.19%
stability, mean ± SD (measured concentration) [3, 7]: 942 ± 21.5 ng/mL
stability, Accuracy (measured versus nominal concentration) [3, 8]: 92.03%
stability, mean ± SD (measured concentration) [3, 8]: 920 ± 31.6 ng/mL
stability, Accuracy (measured versus nominal concentration) [3, 9]: 100.29%
stability, mean ± SD (measured concentration) [3, 9]: 1003 ± 39.5 ng/mL
stability, Accuracy (measured versus nominal concentration) [3, 10]: 90.64%
stability, mean ± SD (measured concentration) [3, 10]: 4532 ± 63.0 ng/mL
stability, Accuracy (measured versus nominal concentration) [3, 11]: 91.25%
stability, mean ± SD (measured concentration) [3, 11]: 4563 ± 143 ng/mL
stability, Accuracy (measured versus nominal concentration) [3, 12]: 95.29%
stability, mean ± SD (measured concentration) [3, 12]: 4765 ± 218 ng/mL
SMILES: C=C1CC[C@@H]2[C@H]3[C@@H](CC[C@H]2C)[C@@H](C)C(=O)O[C@H]13 [ARTI, Arteannuin I]
